Reference: patent US11759461B2, “Small molecule inhibitors of cancer stem cells and mesenchymal cancer types” (The Scripps Research Institute, priority 2017, dated 2023)

test system: FOXC2-expressing HMLER cells; assay: Cell Titer Glo viability of FOXC2-HMLER cells (high throughput screen and 10-point response); type: cell-based; conditions: Homo sapiens; scored relative to parent compound 1; 72 hours; read-out: Activity Score, inhibition of FOXC2-expressing HMLER cells by Formula I compounds
Description: For high throughput screening, FOXC2-HMLER and HMLER cells were plated at 10^3 cells per well in white 384-well plates in 50 μL of MEGM medium (Lonza). Cells were allowed to attach for one hour before compound was transferred to each well as a DMSO solution using a 100 nL pintool head affixed to a PerkinElmer FX instrument. After 72-hour incubation, 30 μL of a Cell Titer Glo solution (diluted 1:6 in water, Promega) was dispensed into each well and luminance values were recorded using an Envision plate reader. […] All other miniaturized, selective viability experiments were performed as above using the indicated growth medium.
More specifically, in the high throughput screening assay above, each cell line was plated at 1,000 cells per well in 384-well plates, treated for 72 hours with 2 μM of test compound, and the viability of each line was determined in parallel by Cell Titer Glo (Promega) luminance measurements.

Row | SMILES | IC50 [µM]
1 | Fc1ccc(N2CCN(c3cnnc4c(Cl)cccc34)CC2)cc1Cl [Compound 1SRJ] | 1 to 20
2 | Clc1cc(Cl)cc(N2C[C@@H]3C[C@H]2CN3c2cnnc3c(Cl)cccc23)c1 [Compound 1SRAN] | < 1

same assay, conditions: Homo sapiens; scored relative to parent compound 2; 72 hours; read-out: Activity Score, inhibition of FOXC2-expressing HMLER cells by Formula II compounds

Row | SMILES | IC50 [µM]
3 | CCc1ccccc1NC(=O)Cn1c(=O)c(CNc2ccc(OC)cc2)cc2cc3c(cc21)OCCO3 [Compound 2AI] | 1 to 20
4 | COc1ccc2cc(CNc3ccccc3)c(=O)n(CC(=O)Nc3c(C)cc(C)cc3C)c2c1 [Compound 2BC] | > 20
5 | COc1cc2cc(CNc3ccc(C)cc3)c(=O)n(CC(=O)Nc3ccc(Cl)cc3)c2cc1OC [Compound 2FH] | > 20
6 | CCc1cccc(NC(=O)Cn2c(=O)c(CNc3ccccc3)cc3ccc(OC)cc32)c1 [Compound 2CH] | > 20
7 | Cc1ccccc1NC(=O)Cn1c(=O)c(CNc2ccccc2)cc2cc3c(cc21)OCCO3 [Compound 2GN] | > 20
8 | COc1cc2cc(CNc3ccc(C)cc3)c(=O)n(CC(=O)Nc3ccc(C)c(C)c3)c2cc1OC [Compound 2DI] | > 20
9 | COc1ccc(NCc2cc3ccc(OC)cc3n(CC(=O)Nc3ccc(C(C)C)cc3)c2=O)cc1 [Compound 2AV] | > 20
10 | COc1ccc2cc(CNc3ccc(C)cc3)c(=O)n(CC(=O)Nc3ccccc3Cl)c2c1 [Compound 2EB] | > 20
11 | COc1ccc2cc(CNc3ccccc3)c(=O)n(CC(=O)NCc3ccc(F)cc3)c2c1 [Compound 2IA] | > 20
12 | COc1cccc(NC(=O)Cn2c(=O)c(CNc3ccc(C)cc3)cc3cc4c(cc32)OCCO4)c1 [Compound 2GC] | > 20
13 | COc1ccc2cc(CNc3ccc(C)cc3)c(=O)n(CC(=O)Nc3ccccc3OC)c2c1 [Compound 2HD] | > 20
14 | COc1ccc2cc(CNc3ccc(C)cc3)c(=O)n(CC(=O)NCc3ccc(Cl)cc3)c2c1 [Compound 2HZ] | > 20
15 | Cc1ccc(C)c(NC(=O)Cn2c(=O)c(CNc3ccccc3)cc3cc4c(cc32)OCCO4)c1 [Compound 2FQ] | > 20
16 | COc1ccc2cc(CNc3ccc(C)cc3)c(=O)n(CC(=O)Nc3cccc(F)c3)c2c1 [Compound 2DN] | > 20
17 | COc1ccc2cc(CNc3ccccc3)c(=O)n(CC(=O)Nc3ccccc3OC)c2c1 [Compound 2CS] | > 20
18 | COc1ccc(NCc2cc3cc4c(cc3n(CC(=O)Nc3ccccc3C)c2=O)OCCO4)cc1 [Compound 2BO] | > 20
19 | COc1ccc(NCc2cc3ccc(C)cc3n(CC(=O)Nc3cccc(C)c3)c2=O)cc1OC [Compound 2BM] | > 20
20 | COc1ccc2cc(CNc3ccccc3)c(=O)n(CC(=O)Nc3ccc(C)c(C)c3)c2c1 [Compound 2CK] | > 20
21 | CCOc1ccccc1NC(=O)Cn1c(=O)c(CNc2ccccc2)cc2ccc(OC)cc21 [Compound 2AG] | 1 to 20
22 | COc1ccc(NCc2cc3ccc(OC)cc3n(CC(=O)Nc3cccc(OC)c3)c2=O)cc1 [Compound 2IC] | > 20
23 | CCOc1ccc(NC(=O)Cn2c(=O)c(CNc3ccc(C)cc3)cc3ccc(OC)cc32)cc1 [Compound 2E] | 1 to 20

Row | SMILES | IC50 [µM]
24 | COc1ccc2cc(CNc3ccc(C)cc3)c(=O)n(CC(=O)Nc3cccc(SC)c3)c2c1 [Compound 2GH] | > 20
25 | COc1ccc2cc(CNc3ccc(C)cc3)c(=O)n(CC(=O)Nc3cc(C)ccc3C)c2c1 [Compound 2U] | 1 to 20
26 | Cc1cccc(C)c1NC(=O)Cn1c(=O)c(CNc2ccccc2)cc2cc3c(cc21)OCCO3 [Compound 2GU] | > 20
27 | COc1cccc(NC(=O)Cn2c(=O)c(CNc3ccccc3)cc3ccc(C)cc32)c1 [Compound 2FM] | > 20
28 | COc1ccc(NCc2cc3ccc(OC)cc3n(CC(=O)Nc3ccc(C)c(C)c3)c2=O)cc1 [Compound 2FX] | > 20
29 | CCOc1ccc(NC(=O)Cn2c(=O)c(CNc3ccccc3)cc3cc4c(cc32)OCCO4)cc1 [Compound 2GW] | > 20
30 | Cc1ccc(NCc2cc3cc4c(cc3n(CC(=O)Nc3c(C)cccc3C)c2=O)OCCO4)cc1 [Compound 2AM] | 1 to 20
31 | COc1cc(NC(=O)Cn2c(=O)c(CNc3ccc(C)cc3)cc3ccc(OC)cc32)cc(OC)c1 [Compound 2CY] | > 20
32 | COc1cc2cc(CNc3ccccc3)c(=O)n(CC(=O)Nc3cc(C)cc(C)c3)c2cc1OC [Compound 2GG] | > 20
33 | COc1ccc2cc(CNc3ccccc3)c(=O)n(CC(=O)Nc3cc(Cl)ccc3C)c2c1 [Compound 2CC] | > 20
34 | COc1cc2cc(CNc3ccccc3)c(=O)n(CC(=O)Nc3ccc(C)cc3C)c2cc1OC [Compound 2CB] | > 20
35 | COc1ccc(NCc2cc3cc4c(cc3n(CC(=O)Nc3c(C)cccc3C)c2=O)OCCO4)cc1 [Compound 2HP] | > 20
36 | COc1cc2cc(CNc3ccc(C)cc3)c(=O)n(CC(=O)Nc3ccc(C(C)C)cc3)c2cc1OC [Compound 2CJ] | > 20
37 | CCc1ccc(NCc2cc3cc(OC)c(OC)cc3n(CC(=O)Nc3ccc(CC)cc3)c2=O)cc1 [Compound 2AS] | > 20
38 | COc1ccc(NCc2cc3cc4c(cc3n(CC(=O)Nc3ccc(C)cc3)c2=O)OCCO4)cc1 [Compound 2BP] | > 20
39 | CCc1ccc(NCc2cc3cc(OC)c(OC)cc3n(CC(=O)Nc3ccccc3C)c2=O)cc1 [Compound 2DK] | > 20
40 | COc1ccc2cc(CNc3ccc(C)cc3)c(=O)n(CC(=O)Nc3cc(C)cc(C)c3)c2c1 [Compound 2BJ] | > 20
41 | COc1ccc2c(c1)cc(CNc1ccc(OC)c(OC)c1)c(=O)n2CC(=O)Nc1ccccc1C [Compound 2BE] | > 20
42 | COc1ccc(NC(=O)Cn2c(=O)c(CNc3ccccc3)cc3ccc(C)cc32)cc1OC [Compound 2GE] | > 20
43 | CCc1ccc(NC(=O)Cn2c(=O)c(CNc3ccc(C)cc3)cc3cc(OC)c(OC)cc32)cc1 [Compound 2FB] | > 20

same assay, conditions: Homo sapiens; scored relative to parent compound 3; 72 hours; read-out: Activity Score, inhibition of FOXC2-expressing HMLER cells by Formula III compounds

Row | SMILES | IC50 [µM]
44 | Cc1ccc(Cl)cc1N1CCN(C(=O)c2ccc(C)c(-n3nnc4cccnc43)c2)CC1 [Compound 3Y] | 1 to 20
45 | Cc1c(C(=O)NC2CCCCCC2)cccc1-n1nnc2cccnc21 [Compound 3BO] | > 20
46 | Cc1ccc(C(=O)NCCCN2CCc3ccccc3C2)cc1-n1nnc2cccnc21 [Compound 3BL] | > 20
47 | Cc1ccc(C(=O)N2CCN(c3cccc(Cl)c3)CC2)cc1-n1nnc2cccnc21 [Compound 3W] | 1 to 20
48 | O=C(c1ccc(-n2nnc3cccnc32)cc1)N1CCN(c2ccccc2F)CC1 [Compound 3J] | 1 to 20
49 | CCCCN(C)C(=O)c1cccc(-n2nnc3cccnc32)c1C [Compound 3BS] | > 20
50 | Cc1cccc(N2CCN(C(=O)c3cccc(-n4nnc5cccnc54)c3C)CC2C)c1 (stereo not drawn) [Compound 3] | < 1
51 | Cc1cccc(N2CCN(C(=O)c3ccc(C)c(-n4nnc5cccnc54)c3)CC2C)c1 (stereo not drawn) [Compound 3A] | < 1
52 | O=C(c1ccc(-n2nnc3cccnc32)cc1)N1CCN(c2ccccc2)CC1 [Compound 3AM] | > 20
53 | COc1ccc(N2CCN(C(=O)c3ccc(-n4nnc5cccnc54)cc3)CC2)cc1 [Compound 3AP] | > 20

same assay, conditions: Homo sapiens; scored relative to parent compound 4; 72 hours; read-out: Activity Score, inhibition of FOXC2-expressing HMLER cells by Formula IV compounds

Row | SMILES | IC50 [µM]
54 | Cc1cccc(N2CCN(S(=O)(=O)c3c(C)nn(-c4ccc(F)cc4)c3C)CC2)c1C [Compound 4F] | < 1
55 | Cc1nn(-c2ccc(Cl)cc2)c(C)c1S(=O)(=O)N1CCN(c2ccccn2)CC1 [Compound 4G] | < 1
56 | Cc1ccccc1N1CCN(S(=O)(=O)c2c(C)nn(-c3ccc(-c4ccccc4)nn3)c2C)CC1 [Compound 4AR] | > 20
57 | COc1cccc(-c2cc(N3CCN(S(=O)(=O)c4cnn(C(F)F)c4C)CC3)ncn2)c1 [Compound 4C] | < 1
